In patent US11426406B2, “Compositions and methods for treating lysosomal storage disorders” (GEORGETOWN UNIVERSITY, priority 2017, dated 2022):

Experiments:
Type in all cases: in vivo
[1] = system: male Sgsh transgenic mice (MPS); assay: Open-field locomotion test in MPS mice (Sanfilippo A model); conditions: daily I.P. 21 days, nilotinib 10 mg/kg, bosutinib 5 mg/kg, FIG. 2C
Description: (§1) Twelve 8-9 month old, male Sgsh transgenic mice (MPS) were used for all experiments and were compared to fourteen non-transgenic age-matched, littermates (non-TG). […] Treatment lasted for 21 days. At the end of the treatment period the mice underwent behavioral testing again and Western blot analysis was performed.
Open-field Locomotion: Mice were placed in the open field arena for 60 minutes. Animals were tracked by photocell beams along the arena floor. Data were collected and analyzed for total locomotion via total cm travelled. Other data collected were the total time spent moving ‘total ambulatory time’ (sec) during the 60 minute trial and the average velocity (cm/sec) during the 60 minute trial.
(§2) Post-treatment rotarod MPS versus non-TG littermate mice: After the behavioral tests were conducted the symptomatic MPS mice were divided into three groups (n=4). […] There were three control groups made of age matched non-TG littermate controls (n=4, 5) which were treated in the same way. Behavioral tests were repeated and data collected is referred to as “post-treatment.” Since there was no significant difference between the control non-TG treatment groups, they were combined into one non-TG control group.

[2] = system: male Sgsh transgenic mice (MPS); assay: Post-treatment rotarod test in MPS mice (Sanfilippo A model); conditions: daily I.P. 21 days, nilotinib 10 mg/kg, bosutinib 5 mg/kg, vs DMSO and non-TG controls, FIG. 3
Description: as §1
Rotarod: Mice were placed on the rotarod apparatus which sped up to 50 rpm, over the course of 5 minutes for 3-5 trials, with a minimum of 30 minutes rest between trials. Data collected were the time the animal remained ambulatory on the rotating rod, in seconds, labelled “latency to fall.” Data is also presented as “percentage difference” where all groups are normalized to the non-transgenic, untreated group, assuming non-transgenic, untreated animals are preforming at 100%.
as §2

[3] = system: male Sgsh transgenic mice (MPS); assay: Open-field anxiety test in MPS mice (Sanfilippo A model); conditions: daily I.P. 21 days, nilotinib 10 mg/kg, bosutinib 5 mg/kg, 5 minute trial, FIG. 2C
Description: Open-field Anxiety: Mice were placed in the open field arena for 5 minutes. Animals were tracked by photocell beams along the arena floor. Data were collected and analyzed for the number of entries into the center zone of the arena, the total distance (cm) traveled within the center zone, the amount of time (sec) spent in the center zone, the total distance traveled (cm) in the peripheral wall zone of the arena, the amount of time spent (sec) in the wall zone, the total distance traveled (cm) during the 5 minute trial, the total time spent moving ‘total ambulatory time’ (sec) during the 5 minute trial, and the average velocity (cm/sec) during the 5 minute trial.

SMILES: Cc1cn(-c2cc(NC(=O)c3ccc(C)c(Nc4nccc(-c5cccnc5)n4)c3)cc(C(F)(F)F)c2)cn1 [nilotinib]
- overall locomotion activity, open field [1]: increased the overall locomotion (p<0.05) activity
- rotarod performance (latency to fall), post-treatment [2]: perform better than the MPS mice treated with DMSO or bosutinib, and look more like the non-TG controls
- anxiety (entries into center zone), open field [3]: reduced anxiety (more entries into center zone, p<0.05)
